Experimental data taken from US11241011B2, “Microbiocidal quinoline (thio)carboxamide derivatives” (SYNGENTA PARTICIPATIONS AG, priority 2017, dated 2022).

How the values were obtained:
[1] = system: Gaeumannomyces graminis; experiment: Gaeumannomyces graminis / liquid culture (take-all of cereals); assay type: cell-based; settings: 20 ppm, growth inhibition photometrically 4-5 days after application, vs untreated control
Experimental: Gaeumannomyces Graminis/Liquid Culture (Take-All of Cereals)
Mycelial fragments of the fungus from cryogenic storage were directly mixed into nutrient broth (PDB potato dextrose broth). After placing a (DMSO) solution of test compound into a microtiter plate (96-well format), the nutrient broth containing the fungal spores iss added. The test plates are incubated at 24° C. and the inhibition of growth is determined photometrically 4-5 days after application.

SMILES	control of Gaeumannomyces graminis [1]	melting point [°C]
CC#CCC(C)(CC(C)C)C(=O)Nc1cnc2c(F)cccc2c1 (stereo not shown) [Compound E-5, N-(8-fluoro-3-quinolyl)-2-isobutyl-2-methyl-hex-4-ynamide]	at least 80%	139 to 140
O=C(Nc1cnc2c(F)cccc2c1)C(CC#CC1CC1)CC(F)(F)F (stereo not shown) [Compound E-2, 5-cyclopropyl-N-(8-fluoro-3-quinolyl)-2-(2,2,2-trifluoroethyl)pent-4-ynamide]		182 to 184
C#CCC(C)(CC(C)C)C(=O)Nc1cnc2c(F)cccc2c1 (stereo not shown) [Compound E-3, N-(8-fluoro-3-quinolyl)-2-isobutyl-2-methyl-pent-4-ynamide]		125 to 127
